Source: publication PMC12097015, “Development of MDM2‐Targeting PROTAC for Advancing Bone Regeneration” (Advanced Science, 2025)
Each block holds one compound with its values, some of them ahead of it.

Columns and labels:
[1] = target: T1, MDM2 (Homo sapiens, UniProt Q00987); test: MDM2 degradation by western blot in hBMSCs; assay type: cell-based; set-up: endogenous in cells; host or cells: hBMSCs; conditions: for MDM2 degradation (western blot) / decrease in MDM2 levels compared to the basal level: 10 μΜ for 1 h
Protocol: Human Bone Marrow‐derived Mesenchymal Stem Cells (hBMSCs) were provided by Professor Lee's laboratory, and cells from passages four to nine were used for all experiments. hBMSCs were cultured in alpha‐minimum essential medium (Welgene, LM008‐01) supplemented with 10% Fetal Bovine Serum (FBS) (Gibco, US origin, 16000–044) and 1% penicillin/streptomycin (Gibco, 15140‐122).
(§1) After discarding the medium and washing the cells twice with cold dPBS, the cells were collected using a scraper and lysed using RIPA buffer (GenDEPOT, R4200‐010) containing protease and phosphatase inhibitors (GenDEPOT, P3200‐001). The collected samples were centrifuged at 13 200 rpm for 10 min at 4 °C, and the supernatant containing total protein was collected. SDS‐PAGE gels (10–12%) were prepared, and protein samples were mixed with 5X loading buffer containing reducing agent (Biosesang, S2002) and heated at 98 °C for 5 min. Equal amounts of protein samples were loaded onto a gel, separated by electrophoresis, and transferred onto nitrocellulose membranes using a Dry Transfer Stacks Kit (Invitrogen, IB23001). The membrane was blocked with 5% nonfat milk in 1X TBST for 1 h at room temperature to prevent nonspecific binding. The membranes were incubated with primary antibodies specific to the target proteins overnight at 4 °C with gentle shaking. The next day, the membrane was washed three times with TBST at 10 min intervals to remove unbound primary antibodies. The membranes were incubated with secondary antibodies (anti‐rabbit and anti‐mouse) conjugated to horseradish peroxidase (HRP) for 1 h at room temperature. The membrane was washed three times with 1X TBST at 10 min intervals to remove unbound secondary antibodies. After washing, a chemiluminescent substrate (ECL, Millipore, WBULS0100) was applied to the membrane to visualize protein bands using a chemiluminescence detector (for the antibodies used, see Table S2, Supporting Information).
The DC50 and Dmax values were calculated by western blot band quantification according to compound concentrations. The quantification value was normalized to the value relative to the untreated group and calculated using the sigmoidal dose‐response (variable slope) equation in GraphPad Prism.
Target sequence in this assay (Q00987 whole entry): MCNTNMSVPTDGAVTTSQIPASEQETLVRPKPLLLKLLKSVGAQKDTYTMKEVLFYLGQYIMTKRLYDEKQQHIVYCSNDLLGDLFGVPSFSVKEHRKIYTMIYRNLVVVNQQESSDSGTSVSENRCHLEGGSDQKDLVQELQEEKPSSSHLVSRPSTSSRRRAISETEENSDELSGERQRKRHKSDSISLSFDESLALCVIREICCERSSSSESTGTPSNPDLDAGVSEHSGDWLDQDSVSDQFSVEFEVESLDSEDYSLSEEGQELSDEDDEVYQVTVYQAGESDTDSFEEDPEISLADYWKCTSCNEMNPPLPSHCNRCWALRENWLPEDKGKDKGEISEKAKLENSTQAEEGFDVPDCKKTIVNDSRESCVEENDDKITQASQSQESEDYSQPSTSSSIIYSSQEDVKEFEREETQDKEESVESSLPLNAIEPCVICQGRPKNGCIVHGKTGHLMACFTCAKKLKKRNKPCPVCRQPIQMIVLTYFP

[2] = test system: EGFP‐MDM2; test: EGFP-MDM2 fluorescence / live imaging degradation assay; assay type: cell-based
Protocol: HeLa cells were cultured in DMEM (Welgene, LM001‐05) supplemented with 10% FBS (Welgene, S001‐07). For transient transfection, the cells were seeded at ≈70% confluence. The following day, transfection was performed using Lipofectamine 3000 (Invitrogen, L3000015) for 24 h according to the manufacturer's protocol. The cells were transfected with 100 ng of EGFP‐MDM2 per well in the 96‐well plate and were transfected with 2 µg of MDM2 WT and 2 µg of HA‐ubiquitin, total 4 µg per well in the 6‐well plate.
To construct the EGFP‐MDM2 plasmid DNA, MDM2 WT was amplified by PCR using specific primers. The PCR products were digested with BamH1 and EcoR1 to generate compatible ends. The plasmid backbone, EGFP‐C1, previously digested with the same enzyme, was ligated into the digested PCR product using T4 ligase (Biolabs, M0202S). The resulting plasmid construct was confirmed using restriction enzyme digestion and DNA sequencing. MDM2 WT (#16233) and HA‐ubiquitin (#18712) were purchased from Addgene (used primer sequences, see Table S2, Supporting Information).
Real‐time Live cell imaging (phase contrast, EGFP fluorescence) was performed to monitor EGFP‐MDM2 intensity at 7 min intervals after compound treatment using Cytation5 (Agilent) laser autofocus conditions to capture EGFP fluorescence to assess intensity. For fluorescence imaging, the cells were fixed using 4% PFA and washed three times with 1X dPBS. Fluorescence imaging was performed using the Cytation5. The intensity of fluorescence was assessed by tracking the fluorescence of individual cells in each image using the Time‐lapse analyzer or ROI measure feature of the Fiji ImageJ software (Version 1.54 h, USA).

[3] = target: T1, MDM2; test: Microscale thermophoresis (MST) binding assay; set-up: made in house; host or cells: E. coli BL21 (DE3); conditions: His-Tag MDM2, n = 3, read-out: dissociation constant (Kd)
Target sequence in this assay (Q00987 whole entry, species assumed): as the sequence (Q00987 whole entry) above
Protocol: E. coli BL21 (DE3) competent cells transformed with pSPEL870 were used to express MDM2 protein.^[ [27] ^] The recombinant strain was cultured in 500 mL 2XYT at 37 °C until the optical density (OD600 ) reached 0.5. Protein expression was induced by adding 0.2 mM isopropyl β‐D‐1‐thiogalactopyranoside (IPTG; Bioshop, Canada) at 20 °C overnight. […] The protein was purified using Ni‐NTA resin (Qiagen, Germany), according to the manufacturer's protocol. The purified protein was buffer exchanged with phosphate‐buffered saline (PBS, pH 7.4) using a centrifugal filter unit (MWCO: 10 K; Merck Millipore, USA). The protein was stored at –20 °C in PBS with 20% glycerol and 1 mM dithiothreitol (DTT).
The His‐Tag MDM2 protein was labeled using a His‐Tag Labeling Kit RED‐tris‐NTA second Generation (NanoTemper, MO‐L018) according to the manufacturer's instructions. […] The final mixtures were transferred to capillaries (NanoTemper, MO‐K022) and the samples were measured using a Monolith NT.115Pico (NanoTemper) instrument (auto LED power; medium MST power). […] The signals were represented as normalized changes in fluorescence (Fnorm ) upon ligand binding. Baseline‐corrected normalized fluorescence (DFnorm ) was obtained from Fnorm values using MO Affinity Analysis, and the dissociation constants (Kd ) were determined by curve fitting (variable slope model) using GraphPad Prism 10.

[4] = test system: hBMSCs; test: Calcium deposit staining (X-Rhod-1) in hBMSCs; assay type: cell-based, human; conditions: X‐Rhod‐1, p < 0.05
Protocol: hBMSCs were differentiated in the presence of the 10 mM β‐glycerophosphate (Sigma‐Aldrich, G9422) and 50 µM ascorbic acid (Sigma‐Aldrich, A4403) in culture medium for 10 d. Subsequently, the cells were fixed with 4% PFA for 30 min, followed by two washes with Mg^2+‐and Ca^2+‐free dPBS (Welgene, LB‐204). To stain for calcium, X‐Rhod‐1 (Invitrogen, X14210) dye was diluted in Mg^2+‐and Ca^2+‐free dPBS at a concentration of 1 µM and incubated at room temperature in the dark for 1 h. The cells were then washed five times with Mg^2+‐and Ca^2+‐free dPBS at 10 min intervals. The samples were observed under a Cytation5 microscope (Agilent Technologies) at a wavelength of 595 nm.

[5] = test system: OVX-induced osteoporosis model; test: Ovariectomy (OVX)-induced osteoporosis mouse model; assay type: in vivo, C57BL6 mice; conditions: OVX mice
Protocol: -Establishment of Ovariectomized Mice Model: The experimental protocols were approved by the IACUC (Approval code: IACUC230118) at the CHA Laboratory Animal Research Center. The mice were handled in compliance with the Guidelines for the Care and Use of Animals at the institution. Female C57BL6 mice (seven weeks old (n = 57)) were randomly divided into six groups (n = 8-10): […] All surgeries and pump implantations were performed under aseptic conditions. Mice were anesthetized before removing both sides of the ovaries. In the fourth week following surgery, an Alzet osmotic pump (Durect Corp, #1004) was implanted in the mice. […] Images were acquired at an effective pixel size of 50 μm (130 kV and 60 μA radiation source; 1.0 mm aluminum filter). Subsequently, 3D images were reconstructed from the 2D X-ray projections by implementing the Feldkamp algorithm, and appropriate image corrections, including ring artifact correction, beam hardening correction, and fine-tuning, were processed using NRecon software (SkyScan 1173, Belgium). The dynamic image range (contrast limits) was determined at 0-0.3 in units of attenuation coefficient and was applied to all datasets for optimum image contrast. After acquisition and reconstruction of the datasets, images were first reoriented on each 3D plane using DataViewer software (SkyScan 1173, Belgium) to align the long axis of the femur parallel to the coronal and sagittal planes. Next, 3D morphometric analyses of the distal femur and body of the lumbar vertebrae were performed using CT-Analyzer software (SkyScan 1173, Belgium). Regarding the region of interest (ROI), this work analyzed the 1.5 mm […] trabecular bone of the distal femur metaphysis, excluding the growth plate. The ROIs were delineated using a freehand drawing tool while maintaining a […] clearance from the endosteal surface. […] A global threshold of 60 (1.01573 g cm^-3) was applied to all scans to extract a physiologically accurate representation of the trabecular bone phase. […] All quantitative and structural parameters followed the nomenclature and units recommended by the American Society for Bone and Mineral Research (ASBMR) Histomorphometry Nomenclature Committee. After data quantification,^[ [26b] ^] 3D rendered images were generated to visualize the analyzed regions using the marching cube method. -H&E staining: Following decalcification, the specimens were fixed in paraffin and longitudinally sliced to a thickness of 3 μm using a microtome. Subsequently, each sample was affixed to a slide and exposed to a temperature of 55 °C. […] The slides underwent a 1 min wash in flowing purified water and immersed in Harris hematoxylin-I for 5 min, followed by a 1 min wash under flowing tap water. Sections were briefly immersed in ammonia water for 30 s and washed with tap water for 3 min. Subsequently, the sections were stained with Eosin Y for 2 min and 30 s, followed by gradual drying in 95%-100% ethanol. Any residual stain was rinsed with distilled water and each section was mounted. -Masson's trichrome staining: Following deparaffinization and hydration, the sections underwent treatment with a mordant containing a 5% iron alum solution in a dry oven at 56 °C for 30 min. Sections were washed under running tap water for 5-6 min to remove picric acid. Sections were stained with Weigert's iron hematoxylin solution for 10 min, followed by rinsing with purified water. A 5 min staining with Biebrich scarlet-acid fuchsin solution ensued, succeeded by washing with purified water. The sections were immersed in a phosphomolybdic-phosphotungstic acid solution for 5 min. After discarding the solution, the sections were washed with distilled water. Differentiation was performed in 1% glacial acetic acid solution for 3 min. The solution was discarded, and the remaining stain was washed with distilled water.

[6] = test system: hBMSCs; test: Cell viability / apoptosis of hBMSCs; assay type: cell-based, human
[7] = test system: osteocalcin (OCN); test: Immunostaining of osteogenic markers in hBMSCs; assay type: cell-based, human; conditions: 10 µM
[8] = target: T1, MDM2; test: Immunoblot with the intracellular proteasome system blocked by a proteasome inhibitor; assay type: cell-based; conditions: 0.5–2 μΜ carfilzomib with PROTAC
Protocol: as §1, with “After washing, a chemiluminescent substrate (ECL, Millipore, WBULS0100) was applied to the membrane to visualize protein bands using a chemiluminescence detector (for the antibodies used, see Table S2, Supporting Information).” left out
Target sequence in this assay (Q00987 whole entry, species assumed): as the sequence (Q00987 whole entry) above

[9] = alendronate comparison study, 0.5 mg kg^−1, n = 6

Structure (SMILES): O=C1CCC(N2Cc3c(C#CCCCNC(=O)c4ccc(NC(=O)[C@@H]5NC6(CCCCC6)[C@@]6(C(=O)Nc7cc(Cl)ccc76)[C@H]5c5cccc(Cl)c5F)cc4)cccc3C2=O)C(=O)N1 (stereo partly drawn) [MD224, reference compound]
degradation efficiency of EGFP‐MDM2 by concentration ([2]; low concentrations (0.01–0.1 µM) versus higher concentrations (1–10 µM)): greater degradation efficiency of EGFP‐MDM2 compared to higher concentrations

Structure (SMILES): COc1ccc(C2=N[C@@H](c3ccc(Cl)cc3)[C@@H](c3ccc(Cl)cc3)N2C(=O)N2CCNC(=O)C2)c(OC(C)C)c1 [Nutlin-3, reference compound]
calcium deposits compared to the control group [4]: significantly increased | bone histology (H&E staining) versus OVX group ([5]; tibia and femur tissues): no significant differences | cell viability [6]: without adversely affecting cell viability | osteocalcin (OCN) protein intensity compared to the control group [7]: no statistically significant difference

Structure (SMILES): NCCCC(O)(P(=O)(O)O)P(=O)(O)O [alendronate, reference compound]
increase in trabecular thickness (Tb.Th) relative to the OVX group [5, 9]: 17.07% | recovery in BV/TV relative to the OVX group [5, 9]: 38.66%

Structure (SMILES): CC(C)C[C@H](NC(=O)[C@H](CCc1ccccc1)NC(=O)CN1CCOCC1)C(=O)N[C@@H](Cc1ccccc1)C(=O)N[C@@H](CC(C)C)C(=O)[C@@]1(C)CO1 [carfilzomib]
effect on PROTAC-induced MDM2 proteolysis [8]: blocked the efficacy of PROTAC in a dose‐dependent manner

Now from value to compound, other results behind:

MDM2 degradation (western blot) [1]: did not induce the degradation of MDM2
Structure (SMILES): COc1ccc(C2=N[C@@H](c3ccc(Cl)cc3)[C@@H](c3ccc(Cl)cc3)N2C(=O)N2CCN(CC(=O)NCCOCCOCCNC(=O)CN3CCN(C(=O)N4C(c5ccc(OC)cc5OC(C)C)=N[C@H](c5ccc(Cl)cc5)[C@@H]4c4ccc(Cl)cc4)CC3=O)C(=O)C2)c(OC(C)C)c1 [CL117]

MDM2 degradation (western blot) [1]: did not induce the degradation of MDM2
Structure (SMILES): COc1ccc(C2=N[C@H](c3ccc(Cl)cc3)[C@H](c3ccc(Cl)cc3)N2C(=O)N2CCN(CC(=O)OC(C)(C)C)C(=O)C2)c(OC(C)C)c1 [CL139]

decrease in MDM2 levels compared to the basal level [1]: over 80%
Structure (SMILES): COc1ccc(C2=N[C@H](c3ccc(Cl)cc3)[C@H](c3ccc(Cl)cc3)N2C(=O)N2CCN(CC(=O)NCCCCCCCCCCCOc3cccc4c3C(=O)N(C3CCC(=O)NC3=O)C4=O)C(=O)C2)c(OC(C)C)c1 (stereo partly drawn) [CL145]

MDM2 degradation (western blot) [1]: effectively decreased MDM2 levels | decrease in MDM2 levels compared to the basal level [1]: over 80% | maximal degradation concentration (Dmax) ([1]; quantified western blot, 1 nM to 50 µM, n = 2): 0.5 μΜ | DC50 ([1]; quantified western blot, 1 nM to 50 µM, n = 2, read-out: half‐maximal degradation concentration (DC50)): 60 nM | Kd [3]: 1270 nM
Structure (SMILES): COc1ccc(C2=NC(c3ccc(Cl)cc3)C(c3ccc(Cl)cc3)N2C(=O)N2CCN(CC(=O)NCCCCCCCC#Cc3cccc4c3C(=O)N(C3CCC(=O)NC3=O)C4=O)C(=O)C2)c(OC(C)C)c1 (stereo not drawn) [CL174]
concentration at which maximum degradation efficiency was achieved ([2]; live imaging, 0.01 to 10 µM): 1 µM | nuclear EGFP signal ([2]; live imaging, treatment for 4 h): almost completely turned off the nuclear EGFP signal
